# Data as given in patent publication US20160101072A1, “Therapeutic uses of enzyme inhibitors” (Proximagen Limited, priority 2013, published 2016).
# Marks after values point to notes of the source that are not given here.
# How the values were obtained:
# [1] = system: CD11b+Ly6Chigh profibrotic : CD11b+Ly6Clow anti-fibrotic myeloid cells; experiment: Ratio of profibrotic to anti-fibrotic myeloid cells in mdx mouse muscle; format: in vivo; details: both doses
# Source text: In this example, labelled antibodies were used to assess infiltration of inflammatory myeloid and lymphoid cells into muscles of mdx mice following treatment of the mice with different doses of the glucocorticoid prednisolone, and the VAP-1 inhibitors carbidopa and benserazide. […] Labelled antibody to CD11b was used to assess infiltration of inflammatory myeloid cells into muscles of mdx mice. Labelled antibody to Ly6C was used to assess infiltration of pro- and anti-inflammatory monocytes into muscles of mdx mice. Labelled antibody to CD4 and CD8a antigen was used to assess infiltration of Th cells (CD4^+CD8^−) and double negative (CD4^−CD8^−) T cells into muscles of mdx mice.
# A total of a ninety C57BU10ScSn-Dmdmdx/J male mice, 3 weeks of age (+/−3days), were transferred to the in vivo research laboratory in Bar Harbor, Me. Additional ten C57BU10ScSnJ male mice 3 weeks of age (+/−3 days) were also transferred and served as a wild-type control group. The mice were ear notched for identification and housed in ventilated polysulfone cages with HEPA filtered air at a density of 3-4 mice per cage. […]
# [2] = system: lymphoid CD4+CD8- T cells; experiment: Cell sorting: recruitment of lymphoid CD4+CD8- T cells into muscles of mdx mice; format: in vivo, mouse; details: mdx mice muscle
# Source text: (§1) In this example, labelled antibodies were used to assess infiltration of inflammatory myeloid and lymphoid cells into muscles of mdx mice following treatment of the mice with different doses of the glucocorticoid prednisolone, and the VAP-1 inhibitors carbidopa and benserazide. CD11b is a transmembrane glycoprotein which is expressed on the surface of granulocytes (including neutrophils and eosinophils), monocytes, NK cells, dendritic cells, tissue macrophages and subsets of T and B cells. Labelled antibody to CD11b was used to assess infiltration of inflammatory myeloid cells into muscles of mdx mice. Labelled antibody to Ly6C was used to assess infiltration of pro- and anti-inflammatory monocytes into muscles of mdx mice. Labelled antibody to CD4 and CD8a antigen was used to assess infiltration of Th cells (CD4^+CD8^-) and double negative (CD4^-CD8^-) T cells into muscles of mdx mice. A total of a ninety C57BU10ScSn-Dmdmdx/J male mice, 3 weeks of age (+/-3days), were transferred to the in vivo research laboratory in Bar Harbor, Me. Additional ten […] male mice 3 weeks of age (+/-3 days) were also transferred and served as a wild-type control group. The mice were ear notched for identification and housed in ventilated polysulfone cages with HEPA filtered air at a density of 3-4 mice per cage. The animal room was lit entirely with artificial fluorescent lighting on controlled 12 hour light/dark cycle (6 a.m. to 6 p.m. light). […] The animal room was set for 15 air exchanges per hour. Filtered tap water acidified to a pH of 2.8 to 3.2 was provided ad libitum. […] Prior to study initiation, mice were acclimated for 3 days. Mice were tested for grip strength and in the open field at ages 25 and 26 days, and drug regimen was initiated at age 27 days. Mice were monitored twice weekly for clinical observations and body weights. […] 24 hours after the second open field tests, blood was collected by retro-orbital bleeding, and mice were humanely euthanized by CO2 asphyxiation. One triceps surae was collected fresh and processed for immune cell sorting, one tibialis anterior was preserved in RNALater for RNA extraction, one whole hind limb and the diaphragm were fixed in 2% paraformaldehyde overnight at 4° C. for paraffin embedding and histology stains. For immune cell sorting, muscle samples were enzymatically and mechanically dissociated following manufacturer instructions (Skeletal Muscle Dissociation KitCatalog no. 130-098-305, Miltenyi Biotec). Cells were stained with the following antibodies: [table] Stained cells were analyzed on a BD LSR II cytometer and counts of different populations were expressed in percentage of the number of live cells counted.
# Lgals3 mRNA = experiment: mRNA quantification (RT PCR) of Lgals3 in muscles of mdx mice; format: in vivo, mouse
# Source text: (§2) A total of a ninety C57BU10ScSn-Dmdmdx/J male mice, 3 weeks of age (+/-3days), were transferred to the in vivo research laboratory in Bar Harbor, Me. Additional ten […] male mice 3 weeks of age (+/-3 days) were also transferred and served as a wild-type control group. The mice were ear notched for identification and housed in ventilated polysulfone cages with HEPA filtered air at a density of 3-4 mice per cage. The animal room was lit entirely with artificial fluorescent lighting on controlled 12 hour light/dark cycle (6 a.m. to 6 p.m. light). […] The animal room was set for 15 air exchanges per hour. Filtered tap water acidified to a pH of 2.8 to 3.2 was provided ad libitum. […] Prior to study initiation, mice were acclimated for 3 days. Mice were tested for grip strength and in the open field at ages 25 and 26 days, and drug regimen was initiated at age 27 days. Mice were monitored twice weekly for clinical observations and body weights. […] 24 hours after the second open field tests, blood was collected by retro-orbital bleeding, and mice were humanely euthanized by CO2 asphyxiation. One triceps surae was collected fresh and processed for immune cell sorting, one tibialis anterior was preserved in RNALater for RNA extraction, one whole hind limb and the diaphragm were fixed in 2% paraformaldehyde overnight at 4° C. for paraffin embedding and histology stains. Total RNAs were extracted with a modification of the Trizol method, reverse transcribed, and mRNAs of TGFβ, and the following inflammation markers were quantified by the SYBR green method with GAPDH as a normalizer: […]
# [3] = system: CD11b+Ly6Clow anti-fibrotic myeloid cells (Ly6C- monocytes); experiment: Cell sorting: recruitment of CD11b+Ly6Clow anti-fibrotic myeloid cells into muscles of mdx mice; format: in vivo, mouse; details: mdx mice muscle; for % change compared to vehicle (CD11b+Ly6Clow anti-fibrotic myeloid cells) / % of viable cells (CD11b+Ly6Clow anti-fibrotic myeloid cells): 4 weeks
# Source text: as §1
# TNF mRNA = experiment: mRNA quantification (RT PCR) of TNF in muscles of mdx mice; format: in vivo, mouse
# Source text: as §2
# CD53 mRNA = experiment: mRNA quantification (RT PCR) of CD53 in muscles of mdx mice; format: in vivo, mouse
# Source text: as §2
# CD11b+ myeloid cells = experiment: Cell sorting: recruitment of CD11b+ myeloid cells into muscles of mdx mice; format: in vivo, mouse; details: mdx mice muscle; for % change compared to vehicle (CD11b+ myeloid cells) / % of viable cells (CD11b+ myeloid cells): 4 weeks
# Source text: as §1
# TGFβ mRNA = experiment: mRNA quantification (RT PCR) of pro-fibrotic growth factor TGFβ in muscles of mdx mice; format: in vivo, mouse
# Source text: as §2
# CD11b mRNA = experiment: mRNA quantification (RT PCR) of CD11b in muscles of mdx mice; format: in vivo, mouse
# Source text: as §2
# Mpeg1 mRNA = experiment: mRNA quantification (RT PCR) of Mpeg1 in muscles of mdx mice; format: in vivo, mouse; details: mdx mice muscle
# Source text: as §2
# [4] = system: CD11b+Ly6Chigh profibrotic myeloid cells (Ly6C+ monocytes); experiment: Cell sorting: recruitment of CD11b+Ly6Chigh profibrotic myeloid cells into muscles of mdx mice; format: in vivo, mouse; details: mdx mice muscle; for % change compared to vehicle (CD11b+Ly6Chigh profibrotic myeloid cells) / % of viable cells (CD11b+Ly6Chigh profibrotic myeloid cells): 4 weeks
# Source text: as §1
# CD48 mRNA = experiment: mRNA quantification (RT PCR) of CD48 in muscles of mdx mice; format: in vivo, mouse
# Source text: as §2
# Ly6C1 mRNA = experiment: mRNA quantification (RT PCR) of Ly6C1 in muscles of mdx mice; format: in vivo, mouse; details: mdx mice muscle
# Source text: as §2
# [5] = system: lymphoid CD4-CD8- (double negative, DN) T cells; experiment: Cell sorting: recruitment of lymphoid CD4-CD8- (double negative, DN) T cells into muscles of mdx mice; format: in vivo, mouse; details: mdx mice muscle
# Source text: as §1
# IL-6 mRNA = experiment: mRNA quantification (RT PCR) of IL-6 in muscles of mdx mice; format: in vivo, mouse; details: mdx mice muscle
# Source text: as §2
# [6] = 100 mg/kg po twice/day, 4 weeks
# [7] = doses as in the table (carbidopa 100, benserazide 20 mg/kg po twice/day; prednisolone 1 mg/kg ip once/day)
# [8] = 50 mg/kg po twice/day, mdx mice muscle, GAPDH as normalizer
# [9] = treatment alone, mdx mouse muscle
# [10] = mdx mouse muscle, compared to vehicle
compound,measurement,setting,value
C[C@@](Cc1ccc(O)c(O)c1)(NN)C(=O)O [Carbidopa],relative levels of pro- and anti-fibrotic myeloid cells,[1],in favour of anti-fibrotic myeloid cells
same,% change compared to vehicle (lymphoid CD4+CD8- T cells),[2]; [6],−51.4%
same,% of viable cells (lymphoid CD4+CD8- T cells),[2]; [6],7.1** %
same,reduction of recruitment of lymphoid CD4+CD8- T cells compared with vehicle,[2]; [7],over 33.3%
same,Lgals3 mRNA level,Lgals3 mRNA; [8],0.66
same,effect on the level of Lgals3 mRNA,Lgals3 mRNA; [9],no significant effect
same,% change compared to vehicle (CD11b+Ly6Clow anti-fibrotic myeloid cells),[3]; 50 mg/kg po twice/day,−49.3%
same,% of viable cells (CD11b+Ly6Clow anti-fibrotic myeloid cells),[3]; 50 mg/kg po twice/day,13.8** %
same,% change compared to vehicle (CD11b+Ly6Clow anti-fibrotic myeloid cells),[3]; 100 mg/kg po twice/day,−41.2%
same,% of viable cells (CD11b+Ly6Clow anti-fibrotic myeloid cells),[3]; 100 mg/kg po twice/day,16** %
same,inhibition of recruitment of anti-fibrotic myeloid cells compared with vehicle,"[3]; both carbidopa doses (columns 5, 6 of FIG. 5B)",less than 50%
same,TNF mRNA level,TNF mRNA; [8],0.74
same,effect on the level of TNF mRNA,TNF mRNA; [9],No significant effect
same,CD53 mRNA level,CD53 mRNA; [8],0.46**
same,reduction of the level of CD53 mRNA,CD53 mRNA; [10],52.6%
same,% change compared to vehicle (CD11b+ myeloid cells),CD11b+ myeloid cells; 50 mg/kg po twice/day,−55.2%
same,% of viable cells (CD11b+ myeloid cells),CD11b+ myeloid cells; 50 mg/kg po twice/day,16.3** %
same,% change compared to vehicle (CD11b+ myeloid cells),CD11b+ myeloid cells; 100 mg/kg po twice/day,−49.2%
same,% of viable cells (CD11b+ myeloid cells),CD11b+ myeloid cells; 100 mg/kg po twice/day,18.5** %
same,reduction of myeloid cell recruitment compared with vehicle,CD11b+ myeloid cells; both carbidopa doses (columns 5 and 6 of FIG. 4),approximately 50%
same,% change compared to vehicle (TGFβ mRNA),"TGFβ mRNA; 50 mg/kg po twice/day, mdx mice muscle",−34.7%
same,TGFβ mRNA,TGFβ mRNA; [8],0.79
same,reduction of the TGFβ mRNA level (fraction in words),"TGFβ mRNA; treatment alone, muscle of mdx mice",over a third
same,CD11b mRNA level,CD11b mRNA; [8],0.58*
same,reduction of the level of CD11b mRNA,CD11b mRNA; [10],42%
same,effect on Mpeg1 mRNA level,Mpeg1 mRNA,No effects
same,% change compared to vehicle (CD11b+Ly6Chigh profibrotic myeloid cells),[4]; 50 mg/kg po twice/day,−86.4%
same,% of viable cells (CD11b+Ly6Chigh profibrotic myeloid cells),[4]; 50 mg/kg po twice/day,1.75** %
same,% change compared to vehicle (CD11b+Ly6Chigh profibrotic myeloid cells),[4]; 100 mg/kg po twice/day,−82.1%
same,% of viable cells (CD11b+Ly6Chigh profibrotic myeloid cells),[4]; 100 mg/kg po twice/day,1.31** %
same,reduction of profibrotic myeloid cell recruitment compared with vehicle,[4]; at both doses tested,over 80%
same,CD48 mRNA level,CD48 mRNA; [8],0.86
same,effect on the level of CD48 mRNA,CD48 mRNA; [9],no significant effect
same,effect on Ly6C1 mRNA level,Ly6C1 mRNA,No effects
same,% change compared to vehicle (lymphoid CD4-CD8- DN T cells),[5]; [6],−56.4%
same,% of viable cells (lymphoid CD4-CD8- DN T cells),[5]; [6],14.2** %
same,reduction of recruitment of lymphoid DN T cells compared with vehicle,[5]; [7],~50%
same,effect on IL-6 mRNA level,IL-6 mRNA,No effects
